Literature values, collected in US6986763B2, “Methods and compositions usable in cataract surgery” (PHACOTREAT AB, priority 2001, dated 2006).

How the values were obtained:
lens epithelial cells [1] = details: in vitro
lens epithelial cells [2] = details: cadaver eyes; for separation of lens epithelial cells: agent in irrigation solution

Compound | inhibiting lens epithelial cells proliferation (lens epithelial cells [1]) | damage to the zonules (lens epithelial cells [2]; 2% solution in irrigation solution) | separation of lens epithelial cells (lens epithelial cells [2])
COc1cc2c(c(OC)c1OC)-c1ccc(OC)c(=O)cc1[C@@H](NC(C)=O)CC2 [colchicines] | effective | – | –
O=c1[nH]cc(F)c(=O)[nH]1 [5-fluorouracil] | effective | – | –
CO[C@@]12[C@H](COC(N)=O)C3=C(C(=O)C(C)=C(N)C3=O)N1C[C@@H]1N[C@@H]12 [mitomycin] | effective | – | –
trypsin | – | the zonules were damaged | lens epithelial cells were stripped in places
COc1cccc2c1C(=O)c1c(O)c3c(c(O)c1C2=O)C[C@@](O)(C(=O)CO)C[C@@H]3O[C@H]1C[C@H](N)[C@H](O)[C@H](C)O1 [doxorubicin] | effective | – | –
COc1cccc2c1C(=O)c1c(O)c3c(c(O)c1C2=O)C[C@@](O)(C(C)=O)C[C@@H]3O[C@H]1C[C@H](N)[C@H](O)[C@H](C)O1 [daunomycin/daunorubicin] | effective | – | –
CC(=O)O[C@H]1C(=O)[C@@]2(C)[C@H]([C@H](OC(=O)c3ccccc3)[C@]3(O)C[C@H](OC(=O)[C@H](O)[C@@H](NC(=O)c4ccccc4)c4ccccc4)C(C)=C1C3(C)C)[C@]1(OC(C)=O)CO[C@@H]1C[C@@H]2O [taxol] | effective | – | –
CN(Cc1cnc2nc(N)nc(N)c2n1)c1ccc(C(=O)N[C@@H](CCC(=O)O)C(=O)O)cc1 [methotrexate] | effective | – | –
O=C(O)CN(CCN(CC(=O)O)CC(=O)O)CC(=O)O [EDTA, Ethylenediamine tetraacetic acid] | – | – | the anterior lens epithelial cells could be separated
